This is an account of results in US9180120B2, “Substituted N-phenethyltriazoloneacetamides and use thereof” (Bayer Intellectual Property GmbH, priority 2010, dated 2015).

The target of one test is human V2 receptor (Homo sapiens (Human), UniProt P30518). The test is described as follows: Cellular in vitro assay for determining the vasopressin receptor activity (aequorin luminescence, CHO cells, antagonism of [Arg8]-vasopressin). The format is cell-based. To be noted: cell line transfected with the human V2 receptor; agonist [Arg8]-vasopressin; read-out: IC50 hV2. The source says:
(§1) • EDTA ethylenediaminetetraacetic acid • DMEM Dulbecco's Modified Eagle Medium • FCS foetal calf serum • HEPES 4-(2-hydroxyethyl)-1-piperazineethanesulphonic acid • SmGM Smooth Muscle Cell Growth Media • Tris-HCl 2-amino-2-(hydroxymethyl)-1,3-propanediol hydrochloride B-1. Cellular in vitro Assay for Determining the Vasopressin Receptor Activity
(§2) The identification of agonists and antagonists of the V1a and V2 vasopressin receptors from humans and rats and also the quantification of the activity of the compounds of the invention takes place using recombinant cell lines. […] In addition, the cells are stably transfected with the human or rat V1a or V2 receptors.
(§3) On the day before the assay, the cells are plated out in culture medium (DMEM, 10% FCS, 2 mM glutamine, 10 mM HEPES) in 384-well microtitre plates and kept in a cell incubator (96% humidity, 5% v/v CO2, 37° C.). On the day of the assay, the culture medium is replaced by a Tyrode solution (140 mM NaCl, 5 mM KCl, 1 mM MgCl2, 2 mM CaCl2, 20 mM glucose, 20 mM HEPES), which additionally contains the cofactor coelenterazine (50 μM), and the microtitre plate is then incubated for a further 3-4 hours. The test substances in various concentrations are placed for 10 to 20 minutes in the wells of the microtitre plate before the agonist [Arg^8]-vasopressin is added, and the resulting light signal is measured immediately in the luminometer.

A further test deals with human V1a receptor (Homo sapiens (Human), UniProt P37288). The description is as above. To be noted: cell line transfected with the human V1a receptor; agonist [Arg8]-vasopressin; read-out: IC50 hV1a. The format is cell-based.
Description: as §1, §2, §3

Structures are written as SMILES.

Chain of human V1a receptor (P37288 whole entry): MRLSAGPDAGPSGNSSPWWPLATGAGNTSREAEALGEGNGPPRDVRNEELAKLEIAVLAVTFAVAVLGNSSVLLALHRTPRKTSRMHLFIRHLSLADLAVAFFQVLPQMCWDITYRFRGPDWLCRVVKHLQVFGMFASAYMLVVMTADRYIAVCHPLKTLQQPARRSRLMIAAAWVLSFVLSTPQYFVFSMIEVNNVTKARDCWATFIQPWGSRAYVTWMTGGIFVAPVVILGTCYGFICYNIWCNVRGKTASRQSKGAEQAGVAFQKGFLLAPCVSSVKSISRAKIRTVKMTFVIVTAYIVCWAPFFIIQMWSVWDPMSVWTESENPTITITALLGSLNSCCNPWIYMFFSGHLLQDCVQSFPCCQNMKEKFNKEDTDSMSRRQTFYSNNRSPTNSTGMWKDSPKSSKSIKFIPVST
Chain of human V2 receptor (P30518 whole entry): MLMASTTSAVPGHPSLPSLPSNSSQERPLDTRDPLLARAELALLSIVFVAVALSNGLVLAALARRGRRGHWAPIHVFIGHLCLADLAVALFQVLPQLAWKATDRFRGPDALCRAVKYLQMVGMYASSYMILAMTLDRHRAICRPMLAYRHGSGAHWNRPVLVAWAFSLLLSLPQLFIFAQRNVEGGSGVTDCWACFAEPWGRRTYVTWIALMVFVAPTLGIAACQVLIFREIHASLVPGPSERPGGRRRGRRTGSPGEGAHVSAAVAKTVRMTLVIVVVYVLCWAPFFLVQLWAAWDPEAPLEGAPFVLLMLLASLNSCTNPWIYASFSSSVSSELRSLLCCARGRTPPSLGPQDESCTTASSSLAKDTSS

What is called IC50 is the concentration at which inhibition is half-maximal. In the case of `NC(=O)OC(CNC(=O)Cn1nc(-c2ccc(Cl)cc2)n(Cc2ccccc2F)c1=O)c1ccccc1Cl` (racemic) [Example 57, 1-(2-Chlorophenyl)-2-({[3-(4-chlorophenyl)-4-(2-fluorobenzyl)-5-oxo-4,5-dihydro-1H-1,2,4-triazol-1-yl]acetyl}amino)ethyl carbamate], the IC50 at human V2 receptor stood at 22 nM; on human V1a receptor, 10 nM.
As for `NC(=O)OC(CNC(=O)Cn1nc(-c2ccc(Cl)cc2)n(CCC(F)(F)F)c1=O)c1ccccc1Cl` (racemic) [Example 59, 1-(2-Chlorophenyl)-2-({[3-(4-chlorophenyl)-5-oxo-4-(3,3,3-trifluoropropyl)-4,5-dihydro-1H-1,2,4-triazol-1-yl]acetyl}amino)ethyl carbamate], the IC50 came to 48 nM on human V2 receptor and 14 nM on human V1a receptor.
For `COCCn1c(-c2ccc(Cl)s2)nn(CC(=O)NCC(NC(=O)OC(C)(C)C)c2ccccc2C(F)(F)F)c1=O` (racemic) [Example 66, tert-Butyl {2-({[3-(5-chloro-2-thienyl)-4-(2-methoxyethyl)-5-oxo-4,5-dihydro-1H-1,2,4-triazol-1-yl]acetyl}amino)-1-[2-(trifluoromethyl)phenyl]ethyl}carbamate], in that order: 1200 nM and 51 nM.
For `CC(C)(C)OC(=O)NC(CNC(=O)Cn1nc(-c2ccc(Cl)s2)n(Cc2ccccc2F)c1=O)c1ccccc1C(F)(F)F` (racemic) [Example 67, tert-Butyl {2-({[3-(5-chloro-2-thienyl)-4-(2-fluorobenzyl)-5-oxo-4,5-dihydro-1H-1,2,4-triazol-1-yl]acetyl}amino)-1-[2-(trifluoromethyl)phenyl]ethyl}carbamate], in that order: 300 nM and 18 nM.
Take `COCCn1c(-c2ccc(Cl)s2)nn(CC(=O)NCC(NS(C)(=O)=O)c2ccccc2C(F)(F)F)c1=O` (racemic) [Example 69, 2-[3-(5-Chloro-2-thienyl)-4-(2-methoxyethyl)-5-oxo-4,5-dihydro-1H-1,2,4-triazol-1-yl]-N-{2-[(methylsulphonyl)amino]-2-[2-(trifluoromethyl)phenyl]ethyl}acetamide]: the half-inhibitory concentration (IC50) was found to be 3500 nM on human V2 receptor and 130 nM at human V1a receptor.
On to `NC(=O)OCC(CNC(=O)Cn1nc(-c2ccc(Cl)cc2)n(C[C@H](O)C(F)(F)F)c1=O)c1ccccc1C(F)(F)F` (single isomer, unassigned) [Example 2], for which the figures for the concentration for half-maximal inhibition (IC50) at human V2 receptor and at human V1a receptor were 16 nM and 1 nM, respectively.
In the case of `NC(=O)OCC(CNC(=O)Cn1nc(-c2ccc(Cl)cc2)n(C[C@H](O)C(F)(F)F)c1=O)c1ccccc1Cl` (single isomer, unassigned) [Example 6], at human V1a receptor, the IC50 is 12 nM.
Consider `NC(=O)OCC(CNC(=O)Cn1nc(-c2ccc(Cl)cc2)n(C[C@H](O)C(F)(F)F)c1=O)c1cccc(C(F)(F)F)c1` (single isomer, unassigned) [Example 9], for which the IC50 amounted to 5 nM at human V2 receptor and 63 nM on human V1a receptor.
With `CC(C)(C)OC(=O)NC(CNC(=O)Cn1nc(-c2ccc(Cl)cc2)n(C[C@H](O)C(F)(F)F)c1=O)c1cccc(Cl)c1Cl` (single isomer, unassigned) [Example 19], on human V2 receptor, the IC50 is 11 nM.
Take `NC(=O)NC(CNC(=O)Cn1nc(-c2ccc(Cl)cc2)n(C[C@H](O)C(F)(F)F)c1=O)c1ccccc1Cl` (single isomer, unassigned) [Example 33]: the IC50 on human V2 receptor was 8 nM; on human V1a receptor, 17 nM.
Regarding `CC(=O)NC(C)(CNC(=O)Cn1nc(-c2ccc(Cl)cc2)n(C[C@H](O)C(F)(F)F)c1=O)c1cccc(C(F)(F)F)c1` (single isomer, unassigned) [Example 39], the figures for the IC50 at human V2 receptor and at human V1a receptor were 10 nM and 25 nM, respectively.
With `NC(=O)OC(CNC(=O)Cn1nc(-c2ccc(Cl)cc2)n(C[C@H](O)C(F)(F)F)c1=O)c1ccccc1C(F)(F)F` (single isomer, unassigned) [Example 42], the IC50 was 3 nM on human V2 receptor and 8 nM at human V1a receptor.
Take `NC(=O)OC(CNC(=O)Cn1nc(-c2ccc(Cl)cc2)n(C[C@H](O)C(F)(F)F)c1=O)c1cccc(Cl)c1Cl` (single isomer, unassigned) [Example 52]: the IC50 on human V2 receptor came to 2 nM; at human V1a receptor, 7 nM.
For `CCNC(=O)OCC(CNC(=O)Cn1nc(-c2ccc(Cl)cc2)n(C[C@H](O)C(F)(F)F)c1=O)c1cccc(C(F)(F)F)c1` (stereo partly drawn) [Example 10, 3-[({3-(4-Chlorophenyl)-5-oxo-4-[(2S)-3,3,3-trifluoro-2-hydroxypropyl]-4,5-dihydro-1H-1,2,4-triazol-1-yl}acetyl)amino]-2-[3-(trifluoromethyl)phenyl]propyl ethylcarbamate], in that order: 9 nM and 24 nM.
Consider `CC(C)(C)OC(=O)NC(CNC(=O)Cn1nc(-c2ccc(Cl)cc2)n(C[C@H](O)C(F)(F)F)c1=O)c1ccccc1C(F)(F)F` (stereo partly drawn) [Example 13, tert-Butyl {2-[({3-(4-chlorophenyl)-5-oxo-4-[(2S)-3,3,3-trifluoro-2-hydroxypropyl]-4,5-dihydro-1H-1,2,4-triazol-1-yl}acetyl)amino]-1-[2-(trifluoromethyl)phenyl]ethyl}carbamate], for which the IC50 was found to be 70 nM at human V2 receptor and 4 nM at human V1a receptor.
For `CS(=O)(=O)NC(CNC(=O)Cn1nc(-c2ccc(Cl)cc2)n(C[C@H](O)C(F)(F)F)c1=O)c1ccccc1Cl` (stereo partly drawn) [Example 25, N-{2-(2-Chlorophenyl)-2-[(methylsulphonyl)amino]ethyl}-2-{3-(4-chlorophenyl)-5-oxo-4-[(2S)-3,3,3-trifluoro-2-hydroxypropyl]-4,5-dihydro-1H-1,2,4-triazol-1-yl}acetamide], in that order: 5 nM and 8 nM.
Turning to `O=CNC(CNC(=O)Cn1nc(-c2ccc(Cl)cc2)n(C[C@H](O)C(F)(F)F)c1=O)c1cccc(C(F)(F)F)c1` (stereo partly drawn) [Example 36, 2-{3-(4-Chlorophenyl)-5-oxo-4-[(2S)-3,3,3-trifluoro-2-hydroxypropyl]-4,5-dihydro-1H-1,2,4-triazol-1-yl}-N-{2-formamido-2-[3-(trifluoromethyl)phenyl]ethyl}acetamide], the figures for the IC50 on human V2 receptor and on human V1a receptor were 13 nM and 19 nM, respectively.
For the compound `NC(=O)OC(CNC(=O)Cn1nc(-c2ccc(Cl)cc2)n(C[C@H](O)C(F)(F)F)c1=O)c1ccccc1Cl` (stereo partly drawn) [Example 47, 1-(2-Chlorophenyl)-2-[({3-(4-chlorophenyl)-5-oxo-4-[(2S)-3,3,3-trifluoro-2-hydroxypropyl]-4,5-dihydro-1H-1,2,4-triazol-1-yl}acetyl)amino]ethyl carbamate], the half-inhibitory concentration (IC50) on human V2 receptor came to 2 nM; on human V1a receptor, 5 nM.
As to `O=C(Cn1nc(-c2ccc(Cl)cc2)n(C[C@H](O)C(F)(F)F)c1=O)N[C@@H](CO)Cc1cccc(C(F)(F)F)c1` [Example 53, 2-{3-(4-Chlorophenyl)-5-oxo-4-[(2S)-3,3,3-trifluoro-2-hydroxypropyl]-4,5-dihydro-1H-1,2,4-triazol-1-yl}-N-{(2R)-1-hydroxy-3-[3-(trifluoromethyl)phenyl]propan-2-yl}acetamide], the IC50 at human V2 receptor turned out to be 15 nM; at human V1a receptor, 4 nM.
